Here are results for 3 compounds from paper PMC11222147, “Host defence peptide plectasin targets bacterial cell wall precursor lipid II by a calcium-sensitive supramolecular mechanism” (Nature Microbiology, 2024).

Assay [1] relates to S. simulans 22. The assay is described as follows: MIC assays under standard conditions. The conditions noted are these: Supplementary Table 1; cation-adjusted MHB, 37 °C, 16–20 h. Type of assay: cell-based, Staphylococcus simulans. The method, boiled down: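 Broth microdilution in cation-adjusted MHB, inoculum from OD600 0.5 TSB culture diluted 100-fold, 37 °C with shaking. Streptococci: 5% lysed horse blood, 5% CO2, MIC read visually at 20–24 h; S. simulans read at 16–20 h.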

The nature of assay [2]: Isothermal titration calorimetry with lipid II LUVs. Type of assay: binding. Here is the method:
About 200 nm large unilamellar vesicles (LUVs) were prepared from 2 mol% lipid II in DOPC by the extrusion technique. ITC measurements were conducted on a low-volume Affinity ITC (TA instruments). All measurements were conducted at 37 °C. Samples were degassed for 10 min before the ITC experiments. The cell was filled with plectasin (in 50 mM HEPES, 150 mM NaCl at pH = 7.2) and titrated with LUVs in the same buffer under constant stirring at 125 r.p.m. The data were analysed using the Nano Analyze software version 3.11.0 (TA Instruments). After baseline correction, the integrated peaks were fitted using an independent binding model. Each measurement was acquired in duplicate.

Assay [3] in a line: HS-AFM oligomerization on supported lipid bilayers doped with lipid II. As to conditions: DOPC/DOPG (1:1), 1% lipid II, 1 mM Ca^2+, up to 1 µM, n = 3.
Procedure: HS-AFM imaging was performed on a supported lipid bilayer deposited on mica using an amplitude modulation tapping mode HS-AFM from RIBM (Ando type)[11]. The lipid compositions are as stated in the experimental conditions of the corresponding results. Short cantilevers (∼7 μm) with a nominal spring constant of 0.15 N m^−1 were used (USC-F1.2-k0.15, NanoWorld) for all experiments. A minimal imaging force was applied by using a small set-point amplitude, typically 80% of the free amplitude (for 1–2 nm of free amplitude). […] Imaging was started on the lipid bilayer surface in recording buffer. […] All reported experiments were repeated for at least three times for each condition. Image analysis was done using Igor Pro version 6.22 (Wavemetrics) with RIBM script and ImageJ version 1.501 with minimal image corrections (tilt, drift and background corrections). The time stamps on HS-AFM videos are relative to plectasin addition into the liquid chamber. Image acquisition rate varied from 0.5 frames per second to 2 frames per second (see the figure/video legends).
Assay [4] deals with S. pneumoniae serotype 8. As to the kind of experiment: MIC assays under standard conditions. Type of assay: cell-based, Streptococcus pneumoniae. As to conditions: Supplementary Table 1; cation-adjusted MHB + 5% lysed horse blood, 5% CO2, 20–24 h. The method, then: (§1) Plectasin and analogues were serially diluted in cation-adjusted Mueller–Hinton broth (MHB) in round-bottom polypropylene 96-well plates (50 µl per well). Selected bacterial strains were grown from glycerol stocks on blood agar plates. Individual colonies were inoculated in TSB and incubated at 37 °C while shaking until OD600 reached 0.5. Bacterial suspensions were then diluted 100 times in cation-adjusted MHB and distributed (50 μl per well) over the microplate containing the diluted plectasin solutions. Plates were covered by a gas-permeable adhesive membrane and incubated at 37 °C while shaking. MICs were determined by visual inspection after 16–20 h (Staphylococcus) or 20–24 h (Streptococcus). For Streptococcus strains, the broth was additionally supplemented with 5% lysed horse blood, and the microplates were incubated under 5% CO2 atmosphere. In the assays, we used the following strains: S. simulans, S. pneumoniae serotype 8, S. pneumoniae ATCC6305 and Streptococcus pyogenes M3.

Assay [5] concerns S. pyogenes M3. As to the kind of experiment: MIC assays under standard conditions. Type of assay: cell-based, Streptococcus pyogenes. The conditions noted are these: Supplementary Table 1; cation-adjusted MHB + 5% lysed horse blood, 5% CO2, 20–24 h. The method, then: as §1
Assay [6] relates to S. simulans 22. Type of assay: cell-based, Staphylococcus simulans. As to conditions: Ca^2+ variable assay. Here is the method: Cation-depleted MHB was prepared as previously described[18] and supplemented with MgCl2 (0.5 mM) and ZnSO4 (10 µM). Plectasin was serially diluted twofold over a 96-well polypropylene plate. Serial dilutions of Ca^2+ in calcium-depleted medium were subsequently added to the wells containing the plectasin dilution series, followed by addition of bacterial suspensions. MICs were determined by visual inspection after 16–20 h (Staphylococcus). The effect of reduced Ca^2+ levels on S. simulans growth in the absence of plectasin was assessed by monitoring growth at 37 °C by OD600 over 18 h (Supplementary Fig. 4).

The conditions of assay [7]: cited from earlier work. The source says: Extended Data Fig. 5 Plectasin binds to bivalent cations with high affinity and its activity is enhanced by calcium ions. Representative ITC traces of the binding of bivalent cations to plectasin in solution and the effect of Mg^2+ on plectasin-lipid II binding. Heat releases and fits of Mg^2+ (A) or Ca^2+ (B) titrated to plectasin in solution. C) Calculated affinities and thermodynamic parameters experiments from (A) and (B), conducted in duplicate. Heat release traces and fits of the titration of Lipid II DOPC vesicles to plectasin without (D) and with (E) the addition of Mg^2+. F,G). Ca^2+ ...

“Also recorded” adds a separate entry of the source. Where a SMILES comes first, the peptide text is derived from it. Bridges are numbered along the chain shown (N, C = ends).

As for `CC[C@H](C)[C@@H]1NC(=O)[C@H](CO)NC(=O)[C@H](CCCCN)NC(=O)[C@@H]2CSSC[C@@H](C(=O)N[C@@H](Cc3ccc(O)cc3)C(=O)O)NC(=O)[C@H](CCCCN)NC(=O)[C@@H]3CSSC[C@H](NC(=O)[C@H](CCC(N)=O)NC(=O)[C@H](CCSC)NC(=O)[C@H](CC(=O)O)NC(=O)[C@H](CC(=O)O)NC(=O)[C@H](CCC(=O)O)NC(=O)[C@H](CC(=O)O)NC(=O)[C@H](Cc4c[nH]c5ccccc45)NC(=O)[C@@H]4CCCN4C(=O)CNC(=O)[C@H](CC(N)=O)NC(=O)[C@@H](NC(=O)CNC(=O)[C@H](Cc4ccccc4)NC(=O)CN)CSSC[C@H](NC(=O)[C@H](Cc4ccc(O)cc4)NC(=O)CNC(=O)CNC(=O)[C@H](CCCCN)NC(=O)[C@H](Cc4ccc(O)cc4)NC(=O)CNC(=O)[C@H](CCCCN)NC1=O)C(=O)N[C@@H](C)C(=O)N[C@@H](CCCCN)C(=O)NCC(=O)NCC(=O)N[C@@H](Cc1ccccc1)C(=O)N[C@@H](C(C)C)C(=O)N3)C(=O)N[C@@H](C)C(=O)N[C@@H](CC(N)=O)C(=O)N[C@@H](Cc1c[nH]cn1)C(=O)N2` [H16A] (H-GFGCNGPWDEDDMQCANHCKSIKGYKGGYCAKGGFVCKCY-OH; disulfide 4-30, 15-37, 19-39 (inferred); N-terminus and C-terminus assumed), the “Minimum inhibitory concentration, S. simulans” value in assay [1] is more than 50 µg/mL. Besides, the “loss in lipid II binding affinity (ITC)” value in assay [2] (mutant vs plectasin) is given as more than 10 fold. In assay [3], the “oligomerization in HS-AFM (in words)” value is reported as “oligomerization was not observed; also recorded: No plectasin oligomerization is observed”.

Take `CSCC[C@@H]1NC(=O)[C@H](CC(=O)O)NC(=O)[C@H](CC(=O)O)NC(=O)[C@H](CCC(=O)O)NC(=O)[C@H](CC(=O)O)NC(=O)[C@H](Cc2c[nH]c3ccccc23)NC(=O)[C@@H]2CCCN2C(=O)CNC(=O)[C@H](CC(N)=O)NC(=O)[C@@H](NC(=O)CNC(=O)[C@H](Cc2ccccc2)NC(=O)CN)CSSC[C@@H]2NC(=O)[C@H](Cc3ccc(O)cc3)NC(=O)CNC(=O)CNC(=O)[C@H](CCCCN)NC(=O)[C@H](Cc3ccc(O)cc3)NC(=O)CNC(=O)[C@H](CCCCN)NC(=O)[C@H](C)NC(=O)[C@H](CO)NC(=O)[C@H](CCCCN)NC(=O)[C@@H]3CSSC[C@@H](C(=O)N[C@@H](Cc4ccc(O)cc4)C(=O)O)NC(=O)[C@H](CCCCN)NC(=O)[C@H](CSSC[C@H](NC(=O)[C@H](CCC(N)=O)NC1=O)C(=O)N[C@@H](Cc1c[nH]cn1)C(=O)N[C@@H](CC(N)=O)C(=O)N[C@@H](Cc1c[nH]cn1)C(=O)N3)NC(=O)[C@H](C(C)C)NC(=O)[C@H](Cc1ccccc1)NC(=O)CNC(=O)CNC(=O)[C@H](CCCCN)NC(=O)[C@H](C)NC2=O` [I22A] (H-GFGCNGPWDEDDMQCHNHCKSAKGYKGGYCAKGGFVCKCY-OH; disulfide 4-30, 15-37, 19-39 (inferred); N-terminus and C-terminus assumed): the “Minimum inhibitory concentration, S. pneumoniae serotype 8” value in assay [4] is more than 25 µg/mL. The “Minimum inhibitory concentration, S. pyogenes M3” value in assay [5] was more than 25 µg/mL. In addition, the “lipid II binding by ITC (in words)” value in assay [2] (LUVs 2 mol% lipid II in DOPC, 37 °C) was “do not bind lipid II”.

Consider daptomycin [reference compound], for which the “improvement of antimicrobial activity with increasing Ca^2+ concentration” value in assay [6] is on record as more than 60 fold. The “increase in MIC if Ca^2+ is replaced by Mg^2+” value in assay [7] is given as more than 100.
